Literature values as cited in article PMC5555364 (ACS chemical neuroscience, 2016).

Tests used:
NaV = details: hyperpolarizing
[1] = test system: single-point mutants of rNaV1.4; details: all amino acid mutations of Figure 5 except tyrosine 1586

Substance: Batrachotoxin [BTX]
- shift of voltage-dependence of channel activation (NaV): −45 mV
- effect of mutations on BTX action on channel function [1]: abrogate the effect of BTX
